Values of other authors in patent US20120302647A1, “SYNTHESIS OF MAGNOLOL AND ITS ANALOGUE COMPOUNDS” (INDIAN INSTITUTE OF CHEMICAL TECHNOLOGY, priority 2010, published 2012).

Columns and labels:
[1] = tested on: cortical neuron-astrocyte mixed cultures; conditions: chemical hypoxia by KCN
[2] = times greater than α-tocopherol

## C=CCc1ccc(O)c(-c2cc(CC=C)ccc2O)c1 [magnolol, 5,5′-diallylbiphenyl-2,2′-diol]
[1]
  protection of neurons against chemical hypoxia: protects neurons against chemical hypoxia by KCN
myocardium
  protection of the myocardium against infarction and reperfusion injury: protecting the myocardium against infarction and reperfusion injury
[2]
  antioxidant activity relative to α-tocopherol: 1000 times
